In patent publication US20120282187A1 (BOEHRINGER INGELHEIM INTERNATIONAL GMBH, priority 2008, published 2012):
Like-named read-outs stand apart in the source and are kept apart here. Marks after values point to notes of the source that are not given here.

Key:
[1] = system: patients with atrial fibrillation
Description: The PETRO-Ex study was conducted in 52 centers in the United States, Denmark, The Netherlands, and Sweden.
PETRO-Ex began while the PETRO study was ongoing and investigators were initially kept blinded to patient treatment group until PETRO was completed. Unblinding investigators to patient treatment was possible thereafter.
Data were summarized descriptively; no hypothesis was to be tested. Events were analyzed on the basis of the treatment at onset. Incidences were reported as of patients with events as well as normalized to 100 patient-years on the respective treatment.
Patients who were down titrated to 50 mg q.d. based on a glomerular filtration rate≦50 mL/min during PETRO were excluded from the long-term trial; patients down-titrated in other dose levels remained on the q.d. treatment at that dose.
The total exposure reflects both trials, PETRO and PETRO-Ex, together.

[2] = system: patients with chronic atrial fibrillation; experiment: PETRO phase 2 12-week dose finding study; assay type: in vivo, human
From the text: Primary endpoints were bleeding events and changes in D-dimer. […] Minor bleeding was dose related.

[3] = Solid state and solubility properties; assay type: physicochemical
[4] = PETRO-Ex, including bleeding and thrombotic events

In the case of `CCCCCCOC(=O)NC(=N)c1ccc(NCc2nc3cc(C(=O)N(CCC(=O)OCC)c4ccccn4)ccc3n2C)cc1` [Dabigatran etexilate, 1-methyl-2-[N-[4-(N-n-hexyloxycarbonylamidino)phenyl]aminomethyl]benzimidazol-5-ylcarboxylic acid-N-(2-pyridyl)-N-(2-ethoxycarbonylethyl)amides], the “Major Bleeds without aspirin, rate” value ([1]; 300 mg b.i.d.) is reported as 6.3 per 100 patient-years, the “Major Bleeds, number” value ([1]; 300 mg b.i.d.) is reported as 10 and the “Major Bleeds, rate” value ([1]; 300 mg b.i.d.) is reported as 12.2 per 100 patient-years. For the same compound, the Major bleeding events ([1]; 300 mg b.i.d.) was 12.2 % per year, the “Other MACE, number” value ([1]; 300 mg b.i.d.) was 1 and the “Stroke and Systemic Thromboembolism, number” value ([1]; 300 mg b.i.d.) was 1. For the same compound, the “TIA, number” value ([1]; 300 mg b.i.d.) was 0, the bleeding events ([1]; 300 mg b.i.d.) was “more than 12 per 100 years” and the “ALT or AST >2xULN, number” value ([1]; 300 mg q.d.) was 3. The “ALT or AST >2xULN, rate” value ([1]; 300 mg q.d.) was 1.5 per 100 patient-years, the “ALT or AST >3xULN and Bili >2xULN within 30 days, number” value ([1]; 300 mg q.d.) was 1 and the “ALT or AST >3xULN and Bili >2xULN within 30 days, rate” value ([1]; 300 mg q.d.) was 0.5 per 100 patient-years. For the same compound, the “ALT or AST >3xULN, number” value ([1]; 300 mg q.d.) was 3, the “ALT or AST >3xULN, rate” value ([1]; 300 mg q.d.) was 1.5 per 100 patient-years and the “ALT or AST >5xULN, number” value ([1]; 300 mg q.d.) was 3. The “ALT or AST >5xULN, rate” value ([1]; 300 mg q.d.) was 1.5 per 100 patient-years, the “Adverse Events leading to premature discontinuation, number” value ([1]; 300 mg q.d.) was 19 and the “Adverse Events leading to premature discontinuation, rate” value ([1]; 300 mg q.d.) was 9.6 per 100 patient-years. The “MI, number” value ([1]; 300 mg q.d.) was 1, the “Major Bleeds with aspirin, number” value ([1]; 300 mg q.d.) was 2 and the “Major Bleeds with aspirin, rate” value ([1]; 300 mg q.d.) was 3.6 per 100 patient-years. The “Major Bleeds without aspirin, number” value ([1]; 300 mg q.d.) was 3, the “Major Bleeds without aspirin, rate” value ([1]; 300 mg q.d.) was 2.1 per 100 patient-years and the “Major Bleeds, number” value ([1]; 300 mg q.d.) was 5. For the same compound, the “Major Bleeds, rate” value ([1]; 300 mg q.d.) was 2.5 per 100 patient-years, the Major bleeding events ([1]; 300 mg q.d.) was 2.5 % per year and the “Other MACE, number” value ([1]; 300 mg q.d.) was 1. The “Stroke and Systemic Thromboembolism, number” value ([1]; 300 mg q.d.) was 5, the “TIA, number” value ([1]; 300 mg q.d.) was 0 and the “fatal major bleeds, number” value ([1]; 300 mg q.d.) was 1. For the same compound, the tolerability ([1]; 300 mg twice daily) was “not tolerable”, the “Serious adverse events: cardiac disorders” value ([1]; PETRO-Ex) was 22% and the “Serious adverse events: cardiac disorders, pts” value ([1]; PETRO-Ex) was 80. The “Serious adverse events: gastrointestinal disorders” value ([1]; PETRO-Ex) was 7.8%, the “Serious adverse events: gastrointestinal disorders, pts” value ([1]; PETRO-Ex) was 28 and the “Serious adverse events: infections” value ([1]; PETRO-Ex) was 9.4%. For the same compound, the “Serious adverse events: infections, pts” value ([1]; PETRO-Ex) was 34, the “Serious adverse events: nervous system disorders” value ([1]; PETRO-Ex) was 9.1% and the “Serious adverse events: nervous system disorders, pts” value ([1]; PETRO-Ex) was 33. For the same compound, the “Major bleeding events (per 100 patient years)” value ([1]; PETRO-Ex, 150 mg b.i.d., without concomitant aspirin) was 3.2%*, the “LFT abnormalities >3 x-ULN (per 100 patient years)” value ([1]; PETRO-Ex, All doses) was 1.7% and the Serious adverse events [1, 4] was 51%. The “Serious adverse events, patients” value [1, 4] was 184, the “ALT or AST >2xULN, number” value ([1]; Total (all doses)) was 30 and the “ALT or AST >2xULN, rate” value ([1]; Total (all doses)) was 2.9 per 100 patient-years. For the same compound, the “ALT or AST >3xULN and Bili >2xULN within 30 days, number” value ([1]; Total (all doses)) was 4, the “ALT or AST >3xULN and Bili >2xULN within 30 days, rate” value ([1]; Total (all doses)) was 0.4 per 100 patient-years and the “ALT or AST >3xULN, number” value ([1]; Total (all doses)) was 18. For the same compound, the “ALT or AST >3xULN, rate” value ([1]; Total (all doses)) was 1.7 per 100 patient-years, the “ALT or AST >5xULN, number” value ([1]; Total (all doses)) was 11 and the “ALT or AST >5xULN, rate” value ([1]; Total (all doses)) was 1.1 per 100 patient-years. For the same compound, the “Adverse Events leading to premature discontinuation, number” value ([1]; Total (all doses)) was 120, the “Adverse Events leading to premature discontinuation, rate” value ([1]; Total (all doses)) was 11.5 per 100 patient-years and the “MI, number” value ([1]; Total (all doses)) was 7. For the same compound, the “Major Bleeds with aspirin, number” value ([1]; Total (all doses)) was 19, the “Major Bleeds with aspirin, rate” value ([1]; Total (all doses)) was 8.5 per 100 patient-years and the “Major Bleeds without aspirin, number” value ([1]; Total (all doses)) was 26. For the same compound, the “Major Bleeds without aspirin, rate” value ([1]; Total (all doses)) was 3.2 per 100 patient-years, the “Major Bleeds, number” value ([1]; Total (all doses)) was 44 and the “Major Bleeds, rate” value ([1]; Total (all doses)) was 4.2 per 100 patient-years. For the same compound, the “Other MACE, number” value ([1]; Total (all doses)) was 11, the “Stroke and Systemic Thromboembolism, number” value ([1]; Total (all doses)) was 20 and the “TIA, number” value ([1]; Total (all doses)) was 1. The “ALT or AST >3xULN and Bili >2xULN within 30 days, number” value ([1]; Total (all doses), listed as dabigatran etexilate) was “four”, the “concomitant bilirubin elevation >2xULN within 30 days of transaminase elevations >3xULN” value ([1]; all doses) was 0.4 % per year and the “elevated liver transaminases, AST or ALT >3xULN” value ([1]; all doses) was 1.7 % per year. For the same compound, the “fatal intracranial bleeds, number” value ([1]; all doses) was “Three”, the “fatal major bleeds, number” value ([1]; all doses) was “Five” and the “transaminases (AST or ALT) >5xULN” value ([1]; all doses) was 1.1 % per year. For the same compound, the “bleeding event risk ratio” value ([1]; concomitant aspirin vs. none) was 2.70, the major bleed rate ([1]; doses ≦150 mg/day (150 mg q.d. combined with 50 mg b.i.d.)) was 3.7 % per year and the bleeding event rate ([1]; on concomitant aspirin) was 8.5 % per year. The bleeding event rate ([1]; without concomitant aspirin) was 3.2 % per year, the Major bleeding events ([2]; 300 mg b.i.d. plus ASA groups) was 6% and the “major bleeding events, number” value ([2]; 300 mg b.i.d. plus ASA groups) was “Four”. For the same compound, the Minor bleeding ([2]; 50, 150, 300 mg b.i.d.) was “dose related”, the “Elevated transaminases >3× upper limit of normal (ULN)” value ([2]; all dabigatran etexilate-treated patients) was 0.9% and the “Elevated transaminases >3× upper limit of normal (ULN), number of patients” value ([2]; of 432 dabigatran etexilate-treated patients) was 4. The hygroscopicity [3] was “hygroscopic” and the solubility in water [3] was “sparingly soluble in water”.
